Test results from ChEMBL document CHEMBL3885861, “Open TG-GATES”.

Species on record: Rattus norvegicus
Experiment: Open TG-GATES - Regimen: Single
Type: toxicity, organism-based, Sprague-Dawley
Set-up: regimen Single, gender Male, age 6 weeks
Details: in vivo, po, 30 mg/kg, route gavage, dose level High; for APTT / Bas / Eos / Fbg / Hb / Ht / Lym / MCH / MCHC / MCV / Mono / Neu / PT / Plat / RBC / Ret / WBC: tissue Blood; for KIDNEY_L / KIDNEY_R / KIDNEY_TOTAL: tissue Kidney; for LIVER: tissue Liver; for A/G / ALP / ALT / AST / BUN / CRE / Ca / Cl / DBIL / GLC / IP / K / LDH / Na / PL / RALB / TBIL / TC / TG / TP / gamma-GTP: tissue Plasma

CN(C)CCC(c1ccc(Cl)cc1)c1ccccn1 (configuration not stated) [CHLORPHENIRAMINE]
TERMINAL_BW (3 h): 197.2 g | APTT (3 h): 16.3 s | Bas (3 h): 0% | Eos (3 h): 0.8% | Fbg (3 h): 287.6 mg/dL | Hb (3 h): 13.5 g/dL | Ht (3 h): 42.6% | Lym (3 h): 74.2% | MCH (3 h): 21.2 pg | MCHC (3 h): 31.8% | MCV (3 h): 66.5 fL | Mono (3 h): 3.4% | Neu (3 h): 21% | PT (3 h): 14.8 s | Plat (3 h): 128.4 x10_4/uL | RBC (3 h): 640.8 x10_4/ul | Ret (3 h): 10.2% | WBC (3 h): 67.1 x10_2/uL | KIDNEY_L (3 h): 0.9 g | KIDNEY_R (3 h): 0.9 g | KIDNEY_TOTAL (3 h): 1.7 g | LIVER (3 h): 9 g | A/G (3 h): 0.9 | ALP (3 h): 1548.6 IU/L | ALT (3 h): 43.6 IU/L | AST (3 h): 79.2 IU/L | BUN (3 h): 8.4 mg/dL | CRE (3 h): 0.1 mg/dL | Ca (3 h): 10.5 mg/dL | Cl (3 h): 108.8 meq/L | DBIL (3 h): 0.008 mg/dL | GLC (3 h): 183.6 mg/dL | IP (3 h): 10 mg/dL | K (3 h): 4.1 meq/L | LDH (3 h): 139.4 IU/L | Na (3 h): 143.4 meq/L | PL (3 h): 146.6 mg/dL | RALB (3 h): 2.6 g/dL | TBIL (3 h): 0.046 mg/dL | TC (3 h): 79 mg/dL | TG (3 h): 59 mg/dL | TP (3 h): 5.5 g/dL | gamma-GTP (3 h): 1.2 IU/L | TERMINAL_BW (6 h): 191.8 g | APTT (6 h): 24.9 s | Bas (6 h): 0% | Eos (6 h): 0.8% | Fbg (6 h): 302 mg/dL | Hb (6 h): 13.8 g/dL | Ht (6 h): 42.4% | Lym (6 h): 73.2% | MCH (6 h): 20.9 pg | MCHC (6 h): 32.5% | MCV (6 h): 64.2 fL | Mono (6 h): 3.4% | Neu (6 h): 21.8% | PT (6 h): 14.7 s | Plat (6 h): 130.7 x10_4/uL | RBC (6 h): 659.8 x10_4/ul | Ret (6 h): 8.9% | WBC (6 h): 76.3 x10_2/uL | KIDNEY_L (6 h): 0.8 g | KIDNEY_R (6 h): 0.8 g | KIDNEY_TOTAL (6 h): 1.6 g | LIVER (6 h): 8.2 g | A/G (6 h): 0.9 | ALP (6 h): 1166.8 IU/L | ALT (6 h): 37.4 IU/L | AST (6 h): 72.4 IU/L | BUN (6 h): 7.6 mg/dL | CRE (6 h): 0.1 mg/dL | Ca (6 h): 10.5 mg/dL | Cl (6 h): 108 meq/L | DBIL (6 h): 0.006 mg/dL | GLC (6 h): 181 mg/dL | IP (6 h): 10.2 mg/dL | K (6 h): 4.4 meq/L | LDH (6 h): 126 IU/L | Na (6 h): 142.4 meq/L | PL (6 h): 138.4 mg/dL | RALB (6 h): 2.5 g/dL | TBIL (6 h): 0.042 mg/dL | TC (6 h): 83.6 mg/dL | TG (6 h): 35 mg/dL | TP (6 h): 5.4 g/dL | gamma-GTP (6 h): 1.4 IU/L | TERMINAL_BW (9 h): 189.4 g | APTT (9 h): 19.9 s | Bas (9 h): 0% | Eos (9 h): 1% | Fbg (9 h): 317 mg/dL | Hb (9 h): 13.6 g/dL | Ht (9 h): 42.2% | Lym (9 h): 73.8% | MCH (9 h): 20.7 pg | MCHC (9 h): 32.3% | MCV (9 h): 64.2 fL | Mono (9 h): 2.6% | Neu (9 h): 22.2% | PT (9 h): 14.9 s | Plat (9 h): 115 x10_4/uL | RBC (9 h): 656.4 x10_4/ul | Ret (9 h): 9.1% | WBC (9 h): 68.4 x10_2/uL | KIDNEY_L (9 h): 0.9 g | KIDNEY_R (9 h): 0.9 g | KIDNEY_TOTAL (9 h): 1.7 g | LIVER (9 h): 8 g | A/G (9 h): 0.9 | ALP (9 h): 1297.6 IU/L | ALT (9 h): 35.2 IU/L | AST (9 h): 71.8 IU/L | BUN (9 h): 7.4 mg/dL | CRE (9 h): 0.1 mg/dL | Ca (9 h): 10.2 mg/dL | Cl (9 h): 106.4 meq/L | DBIL (9 h): 0.008 mg/dL | GLC (9 h): 171.8 mg/dL | IP (9 h): 10.4 mg/dL | K (9 h): 4 meq/L | LDH (9 h): 95 IU/L | Na (9 h): 142.4 meq/L | PL (9 h): 145 mg/dL | RALB (9 h): 2.5 g/dL | TBIL (9 h): 0.056 mg/dL | TC (9 h): 84.2 mg/dL | TG (9 h): 45 mg/dL | TP (9 h): 5.4 g/dL | gamma-GTP (9 h): 1.2 IU/L | TERMINAL_BW (24 h): 198.3 g | APTT (24 h): 17 s | Bas (24 h): 0.2% | Eos (24 h): 1.2% | Fbg (24 h): 324.6 mg/dL | Hb (24 h): 13.6 g/dL | Ht (24 h): 41.8% | Lym (24 h): 79.8% | MCH (24 h): 20.8 pg | MCHC (24 h): 32.6% | MCV (24 h): 63.8 fL | Mono (24 h): 2.6% | Neu (24 h): 15.6% | PT (24 h): 14.8 s | Plat (24 h): 114.6 x10_4/uL | RBC (24 h): 655.4 x10_4/ul | Ret (24 h): 7.8% | WBC (24 h): 93.8 x10_2/uL | KIDNEY_L (24 h): 0.9 g | KIDNEY_R (24 h): 0.9 g | KIDNEY_TOTAL (24 h): 1.8 g | LIVER (24 h): 8 g | A/G (24 h): 0.9 | ALP (24 h): 1572.4 IU/L | ALT (24 h): 45.8 IU/L | AST (24 h): 78.4 IU/L | BUN (24 h): 12.4 mg/dL | CRE (24 h): 0.2 mg/dL | Ca (24 h): 10.8 mg/dL | Cl (24 h): 109 meq/L | DBIL (24 h): 0.012 mg/dL | GLC (24 h): 185 mg/dL | IP (24 h): 7.9 mg/dL | K (24 h): 4.6 meq/L | LDH (24 h): 120.4 IU/L | Na (24 h): 142.4 meq/L | PL (24 h): 145.4 mg/dL | RALB (24 h): 2.6 g/dL | TBIL (24 h): 0.046 mg/dL | TC (24 h): 89.4 mg/dL | TG (24 h): 41.4 mg/dL | TP (24 h): 5.6 g/dL | gamma-GTP (24 h): 1.4 IU/L
